Legend:
Test in all cases: biochemical
Set-up in all cases: CEREP ExpresSProfile competition binding, remaining control specific binding of reference compound
Conditions in all cases: radioligand binding; read-out: Mean % of control specific binding (±sd)
[1] = biological target: T1, EP4 (h) (Homo sapiens, UniProt P35408)
T1 construct: gene PTGER4

[2] = biological target: T2, ETA (h) (Homo sapiens, UniProt P25101)
T2 construct: gene EDNRA

[3] = biological target: T3, M2 (h) (Homo sapiens, UniProt P08172)
T3 construct: gene CHRM2

[4] = biological target: T4, norepinephrine transporter (h) (Homo sapiens, UniProt P23975)
T4 construct: gene SLC6A2

[5] = biological target: T5, NOP (ORL1) (h) (Homo sapiens, UniProt P41146)
T5 construct: gene OPRL1

[6] = biological target: T6, 5-HT1A (h) (Homo sapiens, UniProt P08908)
T6 construct: gene HTR1A

[7] = biological target: T7, Y1 (h) (Homo sapiens, UniProt P25929)
T7 construct: gene NPY1R

[8] = biological target: T8, D1 (h) (Homo sapiens, UniProt P21728)
T8 construct: gene DRD1

[9] = biological target: T9, CB1 (h) (Homo sapiens, UniProt P21554)
T9 construct: gene CNR1

[10] = biological target: T10, H1 (h) (Homo sapiens, UniProt P35367)
T10 construct: gene HRH1

[11] = biological target: T11, beta 2 (h) (Homo sapiens, UniProt P07550)
T11 construct: gene ADRB2

[12] = biological target: T12, kappa (KOP) (Rattus norvegicus, UniProt P34975)
T12 construct: gene Oprk1

[13] = biological target: T13, M1 (h) (Homo sapiens, UniProt P11229)
T13 construct: gene CHRM1

[14] = biological target: T14, 5-HT6 (h) (Homo sapiens, UniProt P50406)
T14 construct: gene HTR6

[15] = biological target: T15, D2S (h) (Homo sapiens, UniProt P14416)
T15 construct: gene DRD2; D2S short isoform

[16] = biological target: T16, A3 (h) (Homo sapiens, UniProt P0DMS8)
T16 construct: gene ADORA3

[17] = biological target: T17, AT1 (h) (Homo sapiens, UniProt P30556)
T17 construct: gene AGTR1

[18] = biological target: T18, MT1 (ML1A) (h) (Homo sapiens, UniProt P48039)
T18 construct: gene MTNR1A

[19] = biological target: T19, NTS1 (NT1) (h) (Homo sapiens, UniProt P30989)
T19 construct: gene NTSR1

[20] = biological target: T20, V1a (h) (Homo sapiens, UniProt P37288)
T20 construct: gene AVPR1A

[21] = biological target: T21, GAL2 (h) (Homo sapiens, UniProt O43603)
T21 construct: gene GALR2

[22] = biological target: T22, B2 (h) (Homo sapiens, UniProt P30411)
T22 construct: gene BDKRB2

[23] = biological target: T23, NK3 (h) (Homo sapiens, UniProt P29371)
T23 construct: gene TACR3

[24] = biological target: T24, 5-HT1B (Rattus norvegicus, UniProt P28564)
T24 construct: gene Htr1b; rat cerebral cortex

[25] = biological target: T25, VPAC1 (VIP1) (h) (Homo sapiens, UniProt P32241)
T25 construct: gene VIPR1

T13 sequence (P11229 whole entry): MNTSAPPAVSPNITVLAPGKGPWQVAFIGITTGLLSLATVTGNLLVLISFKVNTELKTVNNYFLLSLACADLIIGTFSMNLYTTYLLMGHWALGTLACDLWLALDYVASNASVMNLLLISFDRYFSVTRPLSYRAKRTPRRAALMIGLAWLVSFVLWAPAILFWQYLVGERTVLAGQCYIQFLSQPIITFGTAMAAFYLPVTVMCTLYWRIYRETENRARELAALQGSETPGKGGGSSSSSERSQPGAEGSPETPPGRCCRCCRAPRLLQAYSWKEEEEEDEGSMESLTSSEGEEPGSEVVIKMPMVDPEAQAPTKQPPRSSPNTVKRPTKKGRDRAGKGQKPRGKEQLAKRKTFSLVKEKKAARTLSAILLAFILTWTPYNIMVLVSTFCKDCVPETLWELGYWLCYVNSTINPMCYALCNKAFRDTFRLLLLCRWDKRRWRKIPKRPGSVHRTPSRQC
T12 sequence (P34975 whole entry): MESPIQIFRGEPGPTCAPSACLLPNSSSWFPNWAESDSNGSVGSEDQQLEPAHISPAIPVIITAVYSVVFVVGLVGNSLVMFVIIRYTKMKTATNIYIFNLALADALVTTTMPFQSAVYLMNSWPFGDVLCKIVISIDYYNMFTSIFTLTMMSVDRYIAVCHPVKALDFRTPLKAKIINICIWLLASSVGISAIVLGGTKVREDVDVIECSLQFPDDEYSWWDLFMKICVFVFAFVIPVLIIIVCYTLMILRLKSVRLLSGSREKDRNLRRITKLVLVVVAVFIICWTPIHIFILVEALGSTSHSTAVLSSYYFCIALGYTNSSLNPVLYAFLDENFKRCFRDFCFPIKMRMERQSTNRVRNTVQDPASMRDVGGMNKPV
T6 sequence (P08908 whole entry): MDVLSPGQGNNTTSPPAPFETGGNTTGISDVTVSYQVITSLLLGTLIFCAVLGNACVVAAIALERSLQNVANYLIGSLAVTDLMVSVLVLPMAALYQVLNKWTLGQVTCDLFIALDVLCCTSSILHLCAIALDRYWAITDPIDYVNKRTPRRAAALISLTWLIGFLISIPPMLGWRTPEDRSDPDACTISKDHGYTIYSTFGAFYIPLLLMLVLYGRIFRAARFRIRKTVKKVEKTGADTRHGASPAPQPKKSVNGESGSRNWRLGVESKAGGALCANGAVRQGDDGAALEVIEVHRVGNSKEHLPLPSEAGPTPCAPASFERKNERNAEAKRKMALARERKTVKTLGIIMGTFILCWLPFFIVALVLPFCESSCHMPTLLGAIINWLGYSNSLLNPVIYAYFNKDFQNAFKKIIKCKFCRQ
T3 sequence (P08172 whole entry): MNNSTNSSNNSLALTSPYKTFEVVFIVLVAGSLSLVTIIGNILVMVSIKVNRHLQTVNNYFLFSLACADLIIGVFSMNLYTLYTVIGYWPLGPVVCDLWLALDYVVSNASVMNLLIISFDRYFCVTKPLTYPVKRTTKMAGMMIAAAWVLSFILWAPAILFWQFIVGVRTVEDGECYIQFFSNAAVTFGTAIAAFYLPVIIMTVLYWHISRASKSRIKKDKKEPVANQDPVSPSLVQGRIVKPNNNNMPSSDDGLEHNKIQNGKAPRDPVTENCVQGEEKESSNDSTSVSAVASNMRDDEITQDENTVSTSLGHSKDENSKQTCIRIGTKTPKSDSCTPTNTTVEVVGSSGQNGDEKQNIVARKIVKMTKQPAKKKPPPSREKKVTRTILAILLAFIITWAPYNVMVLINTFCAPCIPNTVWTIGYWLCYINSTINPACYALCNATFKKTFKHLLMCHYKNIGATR
T15 sequence (P14416 whole entry, canonical isoform): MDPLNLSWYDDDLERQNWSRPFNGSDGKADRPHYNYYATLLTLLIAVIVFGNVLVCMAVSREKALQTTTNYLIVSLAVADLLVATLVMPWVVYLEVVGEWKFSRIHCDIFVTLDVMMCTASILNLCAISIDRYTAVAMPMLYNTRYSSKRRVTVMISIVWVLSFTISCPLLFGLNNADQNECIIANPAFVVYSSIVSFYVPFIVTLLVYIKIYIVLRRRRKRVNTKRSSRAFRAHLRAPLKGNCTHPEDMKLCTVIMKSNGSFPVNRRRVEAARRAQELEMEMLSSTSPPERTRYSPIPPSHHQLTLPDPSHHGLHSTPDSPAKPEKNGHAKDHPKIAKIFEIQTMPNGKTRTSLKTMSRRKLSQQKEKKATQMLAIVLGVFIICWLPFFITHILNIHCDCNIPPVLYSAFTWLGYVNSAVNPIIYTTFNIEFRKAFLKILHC
T22 sequence (P30411 whole entry): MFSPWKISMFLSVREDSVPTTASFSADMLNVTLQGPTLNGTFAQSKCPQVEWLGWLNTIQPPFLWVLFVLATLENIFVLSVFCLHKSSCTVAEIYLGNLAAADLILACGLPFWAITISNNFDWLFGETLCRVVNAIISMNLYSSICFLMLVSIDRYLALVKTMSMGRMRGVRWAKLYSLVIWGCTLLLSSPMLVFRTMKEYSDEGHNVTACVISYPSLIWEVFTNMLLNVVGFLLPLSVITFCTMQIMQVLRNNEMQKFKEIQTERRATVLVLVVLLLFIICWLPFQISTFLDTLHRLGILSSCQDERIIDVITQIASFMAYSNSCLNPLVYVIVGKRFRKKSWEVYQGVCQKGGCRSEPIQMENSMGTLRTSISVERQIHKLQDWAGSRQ
T5 sequence (P41146 whole entry): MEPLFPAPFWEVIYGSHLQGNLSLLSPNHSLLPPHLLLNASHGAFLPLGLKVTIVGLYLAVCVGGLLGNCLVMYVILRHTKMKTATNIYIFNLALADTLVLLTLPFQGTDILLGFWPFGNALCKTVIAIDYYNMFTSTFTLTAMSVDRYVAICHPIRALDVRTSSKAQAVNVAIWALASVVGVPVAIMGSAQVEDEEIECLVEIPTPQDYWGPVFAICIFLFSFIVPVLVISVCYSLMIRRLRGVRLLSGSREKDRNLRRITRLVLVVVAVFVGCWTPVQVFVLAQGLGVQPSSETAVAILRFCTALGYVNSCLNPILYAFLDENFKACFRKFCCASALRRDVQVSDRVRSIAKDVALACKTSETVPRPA
T8 sequence (P21728 whole entry): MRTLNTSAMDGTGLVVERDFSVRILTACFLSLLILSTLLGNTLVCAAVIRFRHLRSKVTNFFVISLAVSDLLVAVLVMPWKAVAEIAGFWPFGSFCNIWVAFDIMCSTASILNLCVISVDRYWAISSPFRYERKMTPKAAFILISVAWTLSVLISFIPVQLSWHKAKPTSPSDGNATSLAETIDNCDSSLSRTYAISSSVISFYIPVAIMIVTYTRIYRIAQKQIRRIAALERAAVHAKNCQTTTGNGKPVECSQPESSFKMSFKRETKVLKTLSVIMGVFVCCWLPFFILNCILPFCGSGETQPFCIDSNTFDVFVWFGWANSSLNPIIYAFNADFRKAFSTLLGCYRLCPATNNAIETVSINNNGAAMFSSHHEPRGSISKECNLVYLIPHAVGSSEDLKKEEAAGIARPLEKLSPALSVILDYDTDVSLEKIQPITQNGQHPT
T18 sequence (P48039 whole entry): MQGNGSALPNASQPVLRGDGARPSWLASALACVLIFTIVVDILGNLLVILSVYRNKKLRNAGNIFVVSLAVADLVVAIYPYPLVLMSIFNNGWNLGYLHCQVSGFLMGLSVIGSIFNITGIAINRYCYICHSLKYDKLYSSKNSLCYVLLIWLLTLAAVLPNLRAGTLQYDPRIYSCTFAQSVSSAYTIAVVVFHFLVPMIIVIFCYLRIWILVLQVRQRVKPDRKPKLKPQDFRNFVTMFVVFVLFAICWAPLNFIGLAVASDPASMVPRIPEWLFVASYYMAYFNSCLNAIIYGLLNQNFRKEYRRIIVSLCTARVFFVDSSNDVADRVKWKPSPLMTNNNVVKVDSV
T17 sequence (P30556 whole entry): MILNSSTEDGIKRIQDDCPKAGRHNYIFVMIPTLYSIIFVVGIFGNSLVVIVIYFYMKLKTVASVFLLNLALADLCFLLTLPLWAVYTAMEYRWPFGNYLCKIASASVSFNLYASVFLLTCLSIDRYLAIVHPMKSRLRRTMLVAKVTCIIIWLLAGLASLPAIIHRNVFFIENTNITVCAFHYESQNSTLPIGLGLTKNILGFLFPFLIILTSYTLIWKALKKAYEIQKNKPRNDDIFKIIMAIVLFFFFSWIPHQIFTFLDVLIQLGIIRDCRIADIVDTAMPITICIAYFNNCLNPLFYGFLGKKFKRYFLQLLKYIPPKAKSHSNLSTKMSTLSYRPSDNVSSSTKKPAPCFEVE
T4 sequence (P23975 whole entry): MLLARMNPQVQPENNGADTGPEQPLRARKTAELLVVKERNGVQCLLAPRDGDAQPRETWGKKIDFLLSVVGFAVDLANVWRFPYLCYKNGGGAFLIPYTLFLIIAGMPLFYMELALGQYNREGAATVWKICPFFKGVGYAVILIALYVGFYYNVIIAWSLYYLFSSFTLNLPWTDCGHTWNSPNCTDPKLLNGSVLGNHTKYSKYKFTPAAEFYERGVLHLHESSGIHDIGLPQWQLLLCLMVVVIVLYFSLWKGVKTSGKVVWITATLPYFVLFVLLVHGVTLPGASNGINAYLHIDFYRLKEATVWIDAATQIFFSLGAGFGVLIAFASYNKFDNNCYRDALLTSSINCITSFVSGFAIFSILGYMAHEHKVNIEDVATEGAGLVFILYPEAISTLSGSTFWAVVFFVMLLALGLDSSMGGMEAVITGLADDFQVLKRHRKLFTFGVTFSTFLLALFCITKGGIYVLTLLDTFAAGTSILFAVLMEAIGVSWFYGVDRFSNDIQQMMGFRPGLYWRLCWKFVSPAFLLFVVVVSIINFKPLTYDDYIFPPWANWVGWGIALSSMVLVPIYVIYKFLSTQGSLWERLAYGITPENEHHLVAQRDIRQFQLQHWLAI

SMILES: Cc1ncsc1-c1ccc(CNC(=O)[C@@H]2C[C@@H](O)CN2C(=O)[C@@H](NC(=O)C2(C#N)CC2)C(C)(C)C)cc1 [VH298]
- remaining binding at 50 µM [1]: 95%
- remaining binding at 50 µM [2]: 88%
- remaining binding at 50 µM [3]: 94%
- remaining binding at 50 µM [4]: 96%
- remaining binding at 50 µM [5]: 92%
- remaining binding at 50 µM [6]: 82%
- remaining binding at 50 µM [7]: 106%
- remaining binding at 50 µM [8]: 103%
- remaining binding at 50 µM [9]: 115%
- remaining binding at 50 µM [10]: 101%
- remaining binding at 50 µM [11]: 95%
- remaining binding at 50 µM [12]: 92%
- remaining binding at 50 µM [13]: 94%
- remaining binding at 50 µM [14]: 92%
- remaining binding at 50 µM [15]: 91%
- remaining binding at 50 µM [16]: 55%
- remaining binding at 50 µM [17]: 84%
- remaining binding at 50 µM [18]: 75%
- remaining binding at 50 µM [19]: 103%
- remaining binding at 50 µM [20]: 95%
- remaining binding at 50 µM [21]: 87%
- remaining binding at 50 µM [22]: 101%
- remaining binding at 50 µM [23]: 94%
- remaining binding at 50 µM [24]: 117%
- remaining binding at 50 µM [25]: 85%
